Patent US20240382465A1, “AROMATIC ACETYLENE DERIVATIVE, AND PREPARATION METHOD THEREFOR AND USE THEREOF” (priority 2021, published 2024)
Converted amounts (≈) assume the structure as drawn.

Key:
[1] = Pharmacokinetic assay in mice; assay type: in vivo; settings: ICR mice, 15 mg/kg, IV; for AUC(0-inf) / clearance / half-life / Vd: male, mouse, plasma; for AUC(0-inf): read-out: Area under curve AUC0-∞; for clearance: read-out: Clearance CL; for half-life: read-out: Half life T½ (converted); for Vd: read-out: Volume of distribution Vdss
Description: ICR mice were used as test animals. The injected compounds 17 and 32 of the present disclosure were measured using the LC/MS/MS method to determine the drug concentrations in plasma at different times, in order to study the pharmacokinetic characteristics of the compounds of the present disclosure in mice.
ICR mice, male, weighing 27.8-38 g, were purchased from VitalRiver Laboratory Animal Technology Co., Ltd.
An appropriate amount of the pharmaceutical compound was weighed, added with an appropriate amount of 10% HP-β-CD, vortexed, sonicated for 20 minutes to dissolve the particles, and filtered (PTFE, […]) to obtain […] of a colorless solution.
ICR mice were divided into groups of injection of each test compound (nine mice in each group), fasted overnight, then administered by injection (IV, at an amount of 15 mg/kg and a volume of 5 mL/kg), and fed 4 hours after administration.
About 0.1 mL of blood was collected from the orbit before administration and 0.083 hours, 0.25 hours, 0.5 hours, 1 hour, 2 hours, 4 hours, 8 hours, 12 hours and 24 hours after administration. The whole blood samples were placed in EDTA-K2-containing anticoagulant tubes. After collected, the blood samples were placed on ice, and centrifuged to separate plasma (centrifugation conditions: 1500 g, 10 minutes). The collected plasma was stored at −40 to −20° C. before analysis.
The content of the compound to be tested in the plasma of mice after injection was determined using LC-MS/MS.

[2] = test system: Klebsiella pneumoniae ATCC 51504; assay type: in vivo, CD-1 female mice; settings: CD-1 mice; for Change in the body weight of the mice / Reduction of total bacterial load of Klebsiella pneumoniae ATCC 51504 in the lungs compared with the control group: 150 mg/kg intravenous; for Bacterial load in lung, LOG (CFU/mouse), Mean: 150 mg/kg intravenous 2 hours after infection, lungs taken 24 hours after infection
Description: The efficacy of the compounds of the present disclosure against pulmonary infection caused by Klebsiella pneumoniae ATCC 51504 was determined by the following method. The experimental process is briefly described as follows: The experimental day of inoculating Klebsiella pneumoniae ATCC 51504 was defined as Day 0. On Day −4 and Day −1, CD-1 female mice (6-8 weeks old, purchased from VitalRiver Experimental Animal Technology Co., Ltd., divided into 3 groups, 5 animals in each group) were intraperitoneally injected with cyclophosphamide to induce an immunosuppressive state in mice. Klebsiella pneumoniae ATCC 51504 cells were cultured in advance on a Muaeller-Hinton agar culture plate in a 37° C. incubator overnight. The single colonies were collected, suspended in physiological saline, and adjusted to the required concentration using a turbidity meter. CD-1 female mice were inoculated via intranasal instillation. Each mouse was inoculated with 50 μL of bacterial solution, with an inoculation volume of 1×10^7 CFU/mouse. Two hours after infection, CD-1 female mice were intravenously administered with compound 17 and compound 32 at 150 mg/kg (solvent: 10% HP-β-CD in Sterile Water for Injection). 24 hours after infection, CD-1 female mice were euthanized. The lung tissue was taken, homogenized with physiological saline, and then diluted 10 times in a gradient for a total of 5 times. Then, 10 μL of lung tissue homogenate of each dilution ratio was taken, and inoculated into bacterial culture plates, which were incubated in a 37° C. incubator overnight, then photographed and saved. A culture plate with an appropriate dilution ratio was selected to count the number of colonies and calculate the bacterial load in the lung tissue to evaluate the efficacy of the drug in inhibiting bacteria. The determination results of the efficacy of the compounds of the present disclosure on pulmonary infection caused by Klebsiella pneumoniae are shown in Tables 4 and 5 below.

K. pneumoniae ATCC13883 = assay: Antibacterial activity, MIC by broth microdilution (CLSI); assay type: cell-based; settings: Klebsiella pneumoniae; K. pneumoniae ATCC13883, 35° C., 18 to 24 hours; read-out: MIC(K. Pneumoniae)
Method in brief: (§1)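 Broth microdilution per CLSI, compound at 64-0.06 μg/mL final in twofold steps (1% DMSO from 100× working solutions). Inoculum 5×10^5 cfu/ml; plates incubated at 35° C for 18-24 hours.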

E. coli ATCC 25922 = assay: as above; assay type: cell-based; settings: Escherichia coli, ATCC25922; E. coli ATCC 25922, 35° C., 18 to 24 hours; read-out: MIC(E. coli)
Method in brief: as §1

[3] = molecular target: recombinant Pseudomonas aeruginosa LpxC (Pseudomonas aeruginosa (strain ATCC 15692 / DSM 22644 / CIP 104116 / JCM 14847 / LMG 12228 / 1C / PRS 101 / PAO1), UniProt P47205); assay: Inhibition of LpxC enzymatic activity (fluorescamine assay); assay type: biochemical; settings: recombinant P. aeruginosa LpxC 5 nM, substrate 10 μM, 25° C., 120 minutes; read-out: IC50
Method in brief: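 Recombinant P. aeruginosa LpxC (5 nM) with substrate UDP-3-O-(R-3-hydroxydecanoyl)-GlcNAc (10 μM), 120 min at 25 °C; compound 8 points, 4-fold dilution, 0.61-10,000 nM. Product detected by fluorescamine (ex 390/em 495 nm) after stopping with pH 8.0 phosphate; % inhibition versus DMSO control.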

Row | SMILES | Pharmacokinetic properties (conclusion) [1] | AUC(0-inf) [1] [ng·h/mL] | clearance [1] [mL/min/kg] | half-life [1] [h] | Vd [1] [L/kg] | Change in the body weight of the mice [2] | Reduction of total bacterial load of Klebsiella pneumoniae ATCC 51504 in the lungs compared with the control group [2] [log value] | Bacterial load in lung, LOG (CFU/mouse), Mean [2] | MIC (K. pneumoniae ATCC13883) [µg/mL] | MIC (E. coli ATCC 25922) [µg/mL] | IC50 [3] [nM]
1 | C[C@H](O)c1nccn1Cc1cc(-c2ccc(C#Cc3ccc(CN4CCC(C(=O)O)CC4)cc3)cc2)on1 [Example 17, (S)-1-(4-((4-(3-((2-(1-hydroxyethyl)-1H-imidazol-1-yl)methyl)isoxazol-5-yl)phenyl)ethynyl)benzyl)piperidin-4-carboxylic acid] | good pharmacokinetic properties | 22500 | 11.1 | 1.3 | 0.48 | no significant change | 4.78 | 4.17 LOG (CFU/mouse) | 8 (≈ 15.7 µM) | 4 (≈ 7.83 µM) | 6.7
2 | C[C@H](O)c1nccn1Cc1cc(-c2ccc(C#Cc3ccc(CN4CC(CC(=O)O)C4)cc3)cc2)on1 [Example 32, (S)-2-(1-(4-((4-(3-((2-(1-hydroxyethyl)-1H-imidazol-1-yl)methyl)isoxazol-5-yl)phenyl)ethynyl)benzyl)azetidin-3-yl)acetic acid] | good pharmacokinetic properties | 20300 | 12.3 | 1.21 | 0.612 | no significant change | 4.24 | 4.42 LOG (CFU/mouse) | 4 (≈ 8.06 µM) | 2 (≈ 4.03 µM) | 19.8
3 | C[C@H](O)c1nccn1Cc1cc(-c2ccc(C#Cc3ccc(OCCCN4CCOCC4)cc3)cc2)on1 [Example 75, (S)-1-(1-((5-(4-((4-(3-morpho-linopropoxy)phenyl)ethynyl)phenyl)isoxazol-3-yl)methyl)-1H-imidazol-2-yl)ethan-1-ol] |  |  |  |  |  |  |  |  | 2 (≈ 3.9 µM) | 1 (≈ 1.95 µM) | 61.2
4 | CCOC(=O)CC1CN(Cc2ccc(C#Cc3ccc(-c4cc(Cn5ccnc5[C@H](C)O)no4)cc3)cc2)C1 [Example 111, Ethyl (S)-2-(1-(4-((4-(3-((2-(1-hydroxyethyl)-1H-imidazol-1-yl)methyl)isoxazol-5-yl)phenyl)ethynyl)benzyl)azetidin-3-yl)acetate] |  |  |  |  |  |  |  |  | 1 (≈ 1.91 µM) | 1 (≈ 1.91 µM) | 8.59
5 | C[C@H](O)c1nccn1Cc1cc(-c2ccc(C#Cc3ccc(CN4CCNC(=O)C4)nc3)cc2)on1 [Example 114, (S)-4-((5-((4-(3-((2-(1-hydroxyethyl)-1H-imidazol-1-yl)methyl)isoxazol-5-yl)phenyl)ethynyl)pyridin-2-yl)methyl)piperazin-2-one] |  |  |  |  |  |  |  |  | 8 (≈ 16.6 µM) | 2 (≈ 4.14 µM) | 10.5
6 | C[C@H](O)c1nccn1Cc1cc(-c2ccc(C#Cc3ccc(CN4CC(CC(=O)O)C4)nc3)cc2)on1 [Example 115, (S)-2-(1-((5-((4-(3-((2-(1-hydroxyethyl)-1H-imidazol-1-yl)methyl)isoxazol-5-yl)phenyl)ethynyl)pyridin-2-yl)methyl)azetidin-3-yl)acetic acid] |  |  |  |  |  |  |  |  | 8 (≈ 16.1 µM) | 2 (≈ 4.02 µM) | 24.5
